Molecular target: T1, dihydrofolate reductase (Homo sapiens, UniProt P00374)
T1 sequence (P00374 1-187): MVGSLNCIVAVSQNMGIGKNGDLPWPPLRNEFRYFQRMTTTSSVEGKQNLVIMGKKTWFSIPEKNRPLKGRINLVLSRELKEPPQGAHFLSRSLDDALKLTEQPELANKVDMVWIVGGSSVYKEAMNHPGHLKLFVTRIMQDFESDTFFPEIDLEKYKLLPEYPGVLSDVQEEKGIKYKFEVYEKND
Experiment: Dihydrofolate reductase enzyme inhibition assay
Format: biochemical
Settings: for inhibition at 500 µM: read-out: % inhibition (0.5 mM)

Row | Structure (SMILES) | IC50 | inhibition at 500 µM
1 | Cc1ccc(CNC(=S)NN=Cc2ccc(N3CCCC3)cc2)cc1 [Compound 5r, N-(4-Methylbenzyl)-2-[4-(pyrrolidin-1-yl)benzylidene]hydrazinecarbothioamide] | 42.2 ± 0.63 µM | 79.8%
2 | Fc1ccccc1NC(=S)NN=Cc1ccc(N2CCCC2)cc1 [Compound 5q, N-(2-Fluorophenyl)-2-[4-(pyrrolidin-1-yl)benzylidene]hydrazinecarbothioamide] | 35.3 ± 0.59 µM | 77.3%
3 | S=C(NCc1ccccc1)NN=Cc1ccc(N2CCCC2)cc1 [Compound 5p, N-Benzyl-2-[4-(pyrrolidin-1-yl)benzylidene]hydrazinecarbothioamide] | 48.2 ± 0.6 µM | 74.6%
4 | Cc1cccc(C)c1NC(=S)NN=Cc1ccc(N2CCCC2)cc1 [Compound 5e, N-(2,6-Dimethylphenyl)-2-[4-(pyrrolidin-1-yl)benzylidene]hydrazinecarbothioamide] | 15.3 ± 0.26 µM | 90.2%
5 | S=C(NCCc1ccccc1)NN=Cc1ccc(N2CCCC2)cc1 [Compound 5l, N-Phenethyl-2-[4-(pyrrolidin-1-yl)benzylidene]hydrazinecarbothioamide] | 12.4 ± 0.25 µM | 91.5%
6 | S=C(NN=Cc1ccc(N2CCCC2)cc1)Nc1ccccc1 [Compound 5f, N-Phenyl-2-[4-(pyrrolidin-1-yl)benzylidene]hydrazinecarbothioamide] | 21.2 ± 0.44 µM | 86.2%
7 | O=[N+]([O-])c1ccc(NC(=S)NN=Cc2ccc(N3CCCC3)cc2)cc1 [Compound 5j, N-(4-Nitrophenyl)-2-[4-(pyrrolidin-1-yl)benzylidene]hydrazinecarbothioamide] | 54.1 ± 0.72 µM | 74.1%
8 | S=C(NN=Cc1ccc(N2CCCC2)cc1)Nc1cccc(Cl)c1Cl [Compound 5c, N-(2,3-Dichlorophenyl)-2-[4-(pyrrolidin-1-yl)benzylidene]hydrazinecarbothioamide] | 36.2 ± 0.69 µM | 81.3%
9 | S=C(NCCN1CCOCC1)NN=Cc1ccc(N2CCCC2)cc1 [Compound 5k, N-(2-Morpholinoethyl)-2-[4-(pyrrolidin-1-yl)benzylidene]hydrazinecarbothioamide] | 40.6 ± 0.59 µM | 76.9%
10 | COc1cccc(NC(=S)NN=Cc2ccc(N3CCCC3)cc2)c1 [Compound 5h, N-(3-Methoxyphenyl)-2-[4-(pyrrolidin-1-yl)benzylidene]hydrazinecarbothioamide] | 23.1 ± 0.35 µM | 86.7%
11 | S=C(NN=Cc1ccc(N2CCCC2)cc1)NC1CCCCC1 [Compound 5a, N-Cyclohexyl-2-[4-(pyrrolidin-1-yl)benzylidene]hydrazinecarbothioamide] | 29.1 ± 0.38 µM | 83.6%
12 | S=C(NN=Cc1ccc(N2CCCC2)cc1)Nc1ccc(Br)cc1 [Compound 5m, N-(4-Bromophenyl)-2-[4-(pyrrolidin-1-yl)benzylidene]hydrazinecarbothioamide] | 16.3 ± 0.26 µM | 90.8%
13 | Fc1ccc(NC(=S)NN=Cc2ccc(N3CCCC3)cc2)cc1 [Compound 5b, N-(4-Fluorophenyl)-2-[4-(pyrrolidin-1-yl)benzylidene]hydrazinecarbothioamide] | 33.1 ± 0.71 µM | 80.6%
14 | S=C(NCc1ccc(Cl)cc1)NN=Cc1ccc(N2CCCC2)cc1 [Compound 5i, N-(4-Chlorobenzyl)-2-[4-(pyrrolidin-1-yl)benzylidene]hydrazinecarbothioamide] | 27.5 ± 0.5 µM | 83.9%
15 | COc1ccc(NC(=S)NN=Cc2ccc(N3CCCC3)cc2)cc1 [Compound 5d, N-(4-Methoxyphenyl)-2-[4-(pyrrolidin-1-yl)benzylidene]hydrazinecarbothioamide] | 12.4 ± 0.48 µM | 91.1%
16 | Cc1ccc(NC(=S)NN=Cc2ccc(N3CCCC3)cc2)cc1 [Compound 5g, 2-[4-(Pyrrolidin-1-yl)benzylidene]-N-(p-tolyl)hydrazinecarbothioamide] | 14.4 ± 0.29 µM | 89.5%
17 | O=[N+]([O-])c1cccc(NC(=S)NN=Cc2ccc(N3CCCC3)cc2)c1 [Compound 5o, N-(3-Nitrophenyl)-2-[4-(pyrrolidin-1-yl)benzylidene]hydrazinecarbothioamide] | 45.3 ± 0.63 µM | 75.6%
18 | S=C(NN=Cc1ccc(N2CCCC2)cc1)Nc1cccc(Br)c1 [Compound 5n, N-(3-Bromophenyl)-2-[4-(pyrrolidin-1-yl)benzylidene]hydrazinecarbothioamide] | 22.1 ± 0.37 µM | 88.2%

From paper PMC11460214 (RSC Advances, 2024)
